Measurements published in patent EP0934745B1, “Use of androsterone derivatives for inhibiting DNA binding of ap-1 and airway smooth muscle proliferation” (CHARLOTTE-MECKLENBURG HOSPITAL doing business as Carolinas …, priority 1998, dated 1999).

Test system: rat tracheal smooth muscle
Experiment: Proliferation of cultured airway smooth muscle (MTT reduction, cell counts)
Type: cell-based
Settings: for growth inhibition by direct visual count of stained cells: 10% FBS, 15,000 cells/well cultured for 24 hours (Figure 4A); for inhibition of FBS-induced cell proliferation (comparison in words): 10% FBS, 15,000 cells/well, 92-96 hours, MTT (Figures 3A, 3C)
Procedure: Polyclonal horseradish peroxidase anti-rabbit IgG was from Transduction Laboratories (Lexington, KY). M-MLV reverse transcriptase was from Life Technologies (Gaithersburg, MD). All other materials were obtained from Sigma unless specified. Measurement of Cultured Airway Smooth Muscle Proliferation. Rat tracheal smooth muscle was cultured by euthanizing rats with pentobarbital overdose and removal of their tracheas. The posterior tracheal membrane was isolated, minced and digested twice for 30 minutes at 37°C. in HBSS containing 0.2% type IV collagenase and 0.05% type IV elastase. Each enzyme digest was collected and centrifuged for 5 minutes at 500 g at room temperature. The supernatant was removed and the pellet was resuspended in DMEM supplemented with 10% FBS, nonessential amino acids, penicillin (100 U/ml), streptomycin (100 µg/ml) and amphotericin (250 ng/ml). Cells were seeded in this medium into 25-cm^2 flasks at 2 x 10^5 cells per flask and incubated in a humidified atmosphere of 5% CO2/95% air at 37°C. Upon reaching confluence, cells were detached with 0.25% trypsin-0.002% EDTA solution for passage.
Proliferation of cultured airway smooth muscle was quantitated using modification of a previously reported colorimetric method based upon metabolic reduction of the soluble yellow tetrazolium dye 3-[4,5-dimethylthiazol]-2yl-2,5-diphenyl tetrazolium bromide (MTT) to its insoluble purple formazan by the action of mitochondrial succinyl dehydrogenase. See Hirst, S.J., Barnes, P.J., and Twort, C.H.C., "Quantifying proliferation of cultured human and rabbit airway smooth muscle in response to serum and platelet derived growth factor," Am. J. Respir. Cell Mol. Biol., 7, 574-581 (1992). This assay empirically distinguishes between dead and living cells. For proliferation studies, cells were seeded into 24-well uncoated plastic plates at 15,000-50,000 cells per well and cultured with DMEM and mitogens. After 24-96 hours the medium was replaced with 1 ml/well fresh DMEM containing 100 µg/ml MTT and 0.5% FBS, and plates were incubated an additional hour MTT-containing medium was removed, cells were washed twice with 1 ml of sterile Dulbecco's modified phosphate buffered saline without Ca^2+ or Mg^2+ (DPBS), 0.5 ml dimethylsulfoxide (DMSO) was added to each well, and the absorbance of the solubilized purple formazan dye was measured at 540 nm on a Shimadzu UV160U spectrophotometer. A total of 4-6 wells was studied at each treatment condition.
The optimum concentration of FBS for use as a mitogenic stimulus was determined by incubating 15,000 cells per well with DMEM containing 0.25, 1.0, 5.0 or 10.0% FBS and MTT reduction was determined after 24, 48, 72 or 96 hours. […] After 24 hours, cells were washed twice with DPBS, fixed and permeabilized by two sequential 5 minute exposures to ice-cold methanol, stained with Giemsa-modified Wright's stain for 3 minutes and washed with DPBS. Cell counts were performed on 10 random fields at 40 power using a 0.01-cm^2 ocular grid. Cell Culture Treatments for Measurement of Airway Smooth Muscle Proliferation. The effect of dehydroepiandrosterone (DHEA) and 16α-bromoepiandrosterone (16α-BrEA) on cellular proliferation was studied in cultures stimulated with 0.5-10% FBS or 1-50 ng/ml recombinant human platelet derived growth factor (PDGF-AA). […] See, for example, the method of Le, Y. Y. , and Xu, R.B., "The molecular mechanism of the action of the pharmacological doses of glucocorticoids. Studies on the low-affinity glucocorticoid receptor," Receptor, 5, 63-69 (1995).

SMILES	cell proliferation stimulated by PDGF (50 ng/ml PDGF, 50,000 cells/well cultured for 72 hours, MTT (Figure 3B))	growth inhibition by direct visual count of stained cells	inhibition of FBS-induced cell proliferation (comparison in words)	IC50 (Rattus norvegicus, 48 h, read-out: 50% inhibitory concentration) [µM]
C[C@]12CC[C@H](O)CC1=CC[C@@H]1[C@@H]2CC[C@]2(C)C(=O)CC[C@@H]12 [DHEA, dehydroepiandrosterone]	inhibites cell proliferation	confirmed by cell counts	more active than DHEA-sulfate at high concentrations	
C[C@]12CC[C@H](O)C[C@@H]1CC[C@@H]1[C@@H]2CC[C@]2(C)C(=O)[C@H](Br)C[C@@H]12 [16α-BrEA, 16α-bromoepiandrosterone]		confirmed by cell counts	even more potent inhibitor of FBS-induced cell proliferation than DHEA	7.5
